# Experimental data: PubChem BioAssay AID2305 (GlaxoSmithKline (GSK), 2010)
# Tested on: P. falciparum 3D7 growth, pLDH absorbance
# Test: blood-stage malaria parasite growth potency – strain 3D7, dose response (AID 2305)
row,Structure (SMILES),IC50 [nM]
1,Cn1cnc2c(Nc3ccncc3)nc(-c3ccc4c(c3)OCO4)nc21,1110
2,Cc1cc(N(C)C)nc(Nc2ccc(NC(=O)C(C)Oc3ccccc3)cc2)n1 (stereo not given),950
3,CCOc1cc(Cc2cnc(N)nc2N)cc(OCC)c1-n1cccc1,760
4,Nc1nc(N)c2cc(Cc3ccc([N+](=O)[O-])cc3)cnc2n1,940
5,O=C(Nc1ccccc1N1CCOCC1)c1ncoc1-c1ccccc1C(F)(F)F,1060
6,COc1ccc(Nc2ncc3c(-c4cccc(NC(=O)Cc5ccncc5)c4)c[nH]c3n2)cc1OC,1230
7,N#Cc1ccc(N2CCN(Cc3cccc(-c4ccc(-c5nc6ccc(C(F)(F)F)cc6[nH]5)cc4)c3)CC2)nc1,700
8,O=C(/C=C/c1ccc(Cl)c(Cl)c1)N1CCC(CCCN2CCC(c3c[nH]c4ccc(O)cc34)CC2)CC1,690
9,Cc1cc(Nc2ccccc2)nc(Nc2ccccc2)n1,800
10,CC(C)CN1C(=O)c2ccccc2C(C(=O)Nc2cccc(C#N)c2)C1c1cccs1 (stereo not given),160
11,O=C(/C=C/c1ccc(Cl)c(Cl)c1)NC[C@@H]1CCC[C@H](CN2CCC(c3c[nH]c4ccccc34)CC2)C1,730
12,CC(C)(C)C1CC(=O)C[C@@H]2C(=O)N(c3ccc(Br)cc3)C(=O)[C@H]12 (stereo not given in full),930
13,COc1cccc(C(=O)Nc2ccc(-c3nc4ccccc4[nH]3)cc2)c1,800
14,CCC(C)(C)NC(=O)C(c1cccc(OC)c1)N(C(=O)CNC(=O)c1cccs1)c1ccc2c(c1)OCCO2 (stereo not given),830
15,O=C(/C=C/c1ccc(Cl)c(Cl)c1)NCCCCCN1CCCC(CCCNC(=O)Nc2ccc(C(F)(F)F)cc2)C1 (stereo not given),530
16,CC1(C)N=C(N)N=C(N)N1c1cc(Cl)c(Cl)cc1Cl,180
17,O=C(/C=C/c1ccc(Cl)c(Cl)c1)NCCCCCN1CCC(C(=O)Nc2cccc(Cl)c2)CC1,680
18,CC(=O)c1cccc2[nH]c(C(=O)NC3CCC(CCN4CCc5ccc(C#N)cc5C4)CC3)cc12 (stereo not given),840
19,Fc1ccc2nc(-c3ccc(-c4ccc(CNCc5cnn(-c6ccccc6)n5)cc4)cc3)[nH]c2c1,540
20,CC(Nc1nc(Nc2ccc(F)cc2)nc(SCC(N)=O)n1)c1ccccc1 (stereo not given),500
21,Cn1cccc1C(=O)C(=O)Nc1ccc(-c2ccc(-c3nc4ccc(F)cc4[nH]3)cc2)cc1,840
22,CCCC(=O)c1cnc2c(I)cccc2c1Nc1ccccc1C,1160
23,CN1CCC(Oc2ccc(NC(=O)c3ccc4c(=O)n(Cc5ccccc5)cnc4c3)cc2Cl)CC1,950
24,Fc1ccc2c(NN=Cc3ccccc3F)ccnc2c1,560
25,COc1ccc2nccc(NN=Cc3ccccc3Cl)c2c1,660

row,Structure (SMILES),IC50 [nM]
1,Clc1cc(Br)ccc1-c1ccc(CNCC2CCNCC2)o1,1510
2,CC(C)c1ccc(NC(=O)NCCCC2CCCN(CCCCCNC(=O)/C=C/c3ccc(Cl)c(Cl)c3)C2)cc1 (stereo not given),960
3,O=C(Nc1cccc(CN2CCCN(Cc3ccc4c(c3)OCO4)CC2)c1)c1ccc(Cl)c(Cl)c1,890
4,CN1CCN(CCCNCc2ccccc2-c2cccc(CNCc3ccc4c(c3)OCO4)c2)CC1,790
5,COc1ccc2c(NN=Cc3cccnc3)ccnc2c1,680
6,O=C(Nc1ccc(N2CCN(Cc3cccc(F)c3)CC2)cc1)c1cccs1,680
7,CCCCc1ccc2[nH]cc(C(=O)OCC)c(=O)c2c1,630
8,COc1ccc2nccc([C@@H](O)CN3CCC(NCC(=O)Nc4cc(F)cc(F)c4)CC3)c2n1,910
9,CN(C)CCOc1cc(NC(=O)Nc2ccc(-c3ccncc3)c(C(F)(F)F)c2)ccc1Cl,990
10,O=C1C(c2ccccc2)=C(Nc2ccc(Cl)cc2)c2ccccc21,610
11,Cc1cc(OC(C)C(=O)N2CCc3ccccc32)ccc1Cl (stereo not given),790
12,CC(Cc1ccc(OCCN2CCN(c3cccc(Cl)c3)CC2)cc1)NCC(O)c1cccc(Cl)c1 (stereo not given),1210
13,c1ccc(CCNCc2ccc(-c3ccc(CNc4ccc5ncccc5c4)cc3)cc2)cc1,920
14,O=C(/C=C/c1ccc(Cl)c(Cl)c1)N1CCC(CCN2CCc3[nH]c4ccccc4c3C2)CC1,890
15,Nc1nccc2ccc(-c3cccnc3)cc12,420
16,Cc1cc(CNCCCCCCCNCc2ccc(Cl)cc2)ccc1O,980
17,O=C(Nc1cccc(C(F)(F)F)c1)NC1CCN(c2ccnc3ccccc23)CC1,990
18,COC(=O)C(=C(C)C)N1C(=O)[C@@H](NC(=O)OCc2ccccc2)[C@H]1SS[C@@H]1[C@H](NC(=O)OCc2ccccc2)C(=O)N1C(C(=O)OC)=C(C)C,430
19,COc1c(C2CCN(CCCCNC(=O)c3ccc(-c4ccc(C(F)(F)F)cc4)c(C(=O)OC(C)C)c3)CC2)ccc2c1CCCC2,860
20,CCCc1cc(OC)c(CC2c3cccc(O)c3CCN2C)cc1OC (stereo not given),300
21,CN1CCN(CCCN(Cc2csc(-c3ccc(CNCc4ccccc4)cc3)n2)S(=O)(=O)c2cccc3cccnc23)CC1,1410
22,CN1CCN(c2ccc(CNc3ccc4ncc(-c5cccc(OC(F)(F)F)c5)n4n3)cc2)CC1,860
23,O=C(Nc1cccc(OC2CCN(Cc3ccccc3)CC2)c1)Nc1cccc([N+](=O)[O-])c1,780
24,COCc1nc(-c2ccccc2)nc(N2CCN(C(=O)NC(C)C)CC2)c1Cc1ccccc1F,1000
25,Cc1ccc(OCC2CCN(c3ncc(C(=O)NC4CC4)cc3Cl)CC2)cc1,1090

row,Structure (SMILES),IC50 [nM]
1,CCN(CCCNc1nc(=S)[nH]c2cc(OC)c(OC)cc12)c1ccccc1,720
2,N#Cc1cccc(NC(=O)Nc2cccc(OC3CCN(Cc4ccccc4)CC3)c2)c1,840
3,COc1ccc(-n2nc(C(=O)NCCC3=CCCCC3)c3ccccc3c2=O)cc1,680
4,CC(C)(C)CNCC(C)(C)c1nc(-c2ccc(Cl)c(O)c2)c(-c2ccncc2)[nH]1,600
5,Cc1cc(-c2cccc(CNC3CCN(C)CC3)c2)ccc1S(=O)(=O)NC1CCC1,730
6,COc1ccc(C=CC(=O)N2CCC(CN3CCC(c4c[nH]c5ccccc45)CC3)CC2)cc1OC,1070
7,CCOc1c(CNCCCNc2nc3ccccc3[nH]2)cc(Br)cc1OC,560
8,O=C(NN=Cc1nc2ccccc2[nH]1)c1cccc([N+](=O)[O-])c1,630
9,COc1ccc2c(c1)CC(C)(C)NC2CCCCCCCCC1NC(C)(C)Cc2cc(OC)ccc21 (stereo not given),1300
10,CNC(=O)c1cnc(Nc2ccc(N3CCN(C)CC3)c(C)c2)nc1NC,870
11,COc1ccc2c(NCCc3ccccc3)cc(-c3ccccc3)nc2c1,990
12,N#Cc1cc([N+](=O)[O-])ccc1-n1nc(-c2cccc(Cl)c2)n(CC2CCCO2)c1=S (stereo not given),910
13,C(=N\Nc1nccc2sc(-c3cccnc3)cc12)/c1ccncc1,210
14,Oc1ccc2c(c1CNC1CCCCC1)CCCC2,940
15,Cc1[nH]c(C)c(-c2ccc(CCc3ccc(F)cc3F)cc2)c(=O)c1Cl,20
16,CCOc1ccc(CN(CCc2ccc3c(c2)OCO3)Cc2cc(OC)ccc2O)cc1,750
17,CC(C)C(NC(=O)Cc1cccc2ccccc12)C(=O)Nc1cccc(C#N)c1 (stereo not given),660
18,CC(C)(C)c1ccc(CNCC(C)(C)c2nc(-c3ccc(Cl)c(O)c3)c(-c3ccnc(N)n3)[nH]2)cc1,700
19,CCn1cc(CN2CCCC(C(=O)Nc3ccc(-c4nc5ccccc5[nH]4)cc3)C2)c(C)n1 (stereo not given),800
20,COc1ccccc1C(C)NCC(=O)Nc1cccc(C(=O)Nc2cccc(C(F)(F)F)c2)c1 (stereo not given),1530
21,COc1ccc2oc(=O)c(C#N)c(O)c2c1,210
22,Cc1cc(NN=Cc2cccc([N+](=O)[O-])c2)c2cc(F)ccc2n1,590
23,CCCCCN1CCC(NC(=O)c2ccc(C(=O)Nc3ccc(C(C)C)cc3)cc2)CC1,850
24,CN(CCN(C)CC(O)c1ccc(Cl)c(Cl)c1)CC(O)c1ccc(Cl)c(Cl)c1 (stereo not given),1100
25,CC(=O)N(Cc1nc(-c2cc(Cl)c(Cl)s2)cs1)c1c(C)cccc1C,330

row,Structure (SMILES),IC50 [nM]
1,O=C(N[C@@H](Cc1ccccc1)C(=O)NCCN1CCOCC1)c1ccc(O)c(-c2ccc(Cl)c(Cl)c2)c1,920
2,O=C(NCc1cccs1)[C@H](Cc1ccccc1)Nc1ccnc(NCCc2ccc(F)cc2)n1,1450
3,COc1ccc(-c2cccc(NC(=O)c3cccc(Cl)c3)c2)cc1CN1CCNCC1,800
4,CC(=O)Nc1nc(C(=O)Nc2ccc(-c3cccc(-c4nc5ccccc5[nH]4)c3)cc2)cs1,550
5,CC(=O)Nc1ccc(OCCN(CC(C)C)c2ccc(C#N)c(C(F)(F)F)c2)c(Cl)c1,790
6,CC(C)C1=C[C@H]2C[C@]3(C4OCCO4)[C@@H]4CC[C@@H](C)[C@H]4C[C@@]2(COCc2cccc(C#N)c2)[C@]13C(=O)OC(c1ccccc1)c1ccccc1,1790
7,COc1ccc(-c2cccc(NC(=O)c3ccc(Cl)cc3)c2)cc1CN(C)CCN(C)C,780
8,CC1CCN(c2nc(C(=O)NCCc3ccc(Cl)c(Cl)c3)c(C(C)C)s2)CC1,1930
9,C[C@@H]1CN(c2ncc(-c3ccc(CNC4Cc5ccccc5C4)cc3)cn2)C[C@H](C)N1,1160
10,Cc1cc(N[C@@H](CC(C)C)C(=O)NCCc2ccccc2)nc(NCCc2cccs2)n1,1200
11,CC(C)c1ccc(NC(=O)c2ccc(CN3CCCN(CC4CCCCC4)CC3)cc2)cc1,620
12,O=C(NCCN1CCCCC1)c1cccc(Nc2nccc(Nc3ccc(Oc4ccccc4)cc3)n2)c1,270
13,c1ccc(C2CCC(N3CCC(N4CCN(c5ccccc5)CC4)CC3)CC2)cc1 (stereo not given),760
14,Fc1ccc2nc(-c3cccc(-c4ccc(CN5CCC(CCN6CCCCC6)CC5)cc4)c3)[nH]c2c1,140
15,Cn1ccnc1CNC(=O)c1ccc(-c2cccc(-c3nc4ccc(F)cc4[nH]3)c2)cc1,980
16,COc1cc(Cc2cnc(N)nc2N)cc(OCC(C)(C)C(=O)O)c1OC,1110
17,Cn1cncc1CCN(Cc1ccc(-c2ccc(C(F)(F)F)cc2)cc1)C(=O)Cn1c(CCc2cccc(F)c2F)cc(=O)c2cccnc21,850
18,Cc1[nH]c2ccccc2c1C1=CCN(CCCCC2(C)C(=O)Nc3cccc(F)c32)CC1 (stereo not given),360
19,Cc1cc(NCCC(=O)NCCOc2ccccc2)nc(NCc2ccccc2C)n1,870
20,CC1(C)N=C(N)N=C(N)N1c1cccc(I)c1,130
21,Cc1c(Cl)cccc1S(=O)(=O)N1CCCCC(c2ccc(C(F)(F)F)cc2)=N1,790
22,CC(CC(=O)NCC1(c2ccc(F)cc2Cl)CCOCC1)C(=O)c1ccc(Cl)cc1 (stereo not given),860
23,NCC(NC(=O)c1ccc(-c2c[nH]c3ncccc23)s1)c1ccccc1 (stereo not given),550
24,CC(C)CNCc1cccc(-c2cccc(CNCCCN3CCN(C)CC3)c2)c1,1180
25,COC(=O)c1ccc(CC(C)NCC(O)c2cccc(C(F)(F)F)c2)cc1C (stereo not given),970
